# Laboratory results: PubChem BioAssay (NCI)
# Values joined by “and” are separate entries in the source; they are usually repeats but may differ in a detail not shown here. Equal values may be shown once.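 How tested: cells in 96-well plates exposed to compound for 48 hours at five concentrations. GI50 marks 50% less growth. TGI: concentration producing complete growth inhibition.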
# Test system: KM12 colon
# Assay: inhibition of tumour cell growth, NCI panel, 48 h
Compound,TGI,GI50
COc1cccc(-c2ccc3c4c2O[C@H]2C(=O)CC[C@@]5(O)[C@@H](C3)N(CC3CC3)CC[C@]425)c1,31.7 µM,
O=C1/C(=C/c2ccc([N+](=O)[O-])cc2)C(=O)N(c2ccccc2)C1c1ccccc1 (stereo not given),> 10 µM,
NC(N)=NCCC[C@H](N)C(=O)NCC(=O)N[C@@H](CC(=O)O)c1ncc(NC(=O)C(F)(F)F)o1,> 25 µM,
Cc1cc(S(=O)(=O)N=C2N(Cc3ccccc3)CCN2Cc2ccccc2)c(S)cc1Cl,> 100 µM,
Oc1ccc(-c2nc(-c3cccnc3)c(-c3ccc(Cl)cc3)[nH]2)cc1,25.7 µM,
CSc1ccc2c(cc1=O)[C@@H](NC(=O)c1ccc(N)cc1)CCc1cc(O)c(O)c(O)c1-2,33.2 µM and 17 µM,14.7 µM and 3.68 µM
CN1CCC(O)(C(C)(C)C)CC1,> 100 µM,
Cn1cc(NC(=O)c2cc(NC(=O)CN=C(N)N)cn2C)cc1C(=O)NCCC(=N)N,> 100 µM,
CCOC(=O)c1cc(C(O)P2(=O)N(CC(C)(C)C)[C@@H]3CCCC[C@H]3N2CC(C)(C)C)cn1C(=O)OC(C)(C)C (stereo not given in full),29.2 µM,
COc1cc(/C=C2/C[C@H]3[C@@H]4CC=C5C[C@@H](O)CC[C@]5(C)[C@H]4CC[C@]3(C)NC2=O)cc(OC)c1OC,> 100 µM,
O=C1C=C(C2=CC(=O)C(=O)c3ccccc32)c2ccccc2C1=O,39.8 µM,
C(=Nc1ccc(-c2nc3ccccc3[nH]2)cc1)c1cccs1,> 100 µM,
C[N+](C)(C)CC1CCCCCCCCCCC1=O (stereo not given),> 100 µM,
Cn1c2c(c3ccccc31)CC1c3c(c4ccccc4n3C)CC21 (stereo not given),> 100 µM,
Cc1ccc(/C=C2\CCCc3ccccc3C2=O)cc1,18.2 µM,
COCN(CCC1=CCCCC1)C(=O)OC,> 100 µM,
NN/C(=N\S(=O)(=O)c1cc2ccccc2s1)Nc1ccc(Cl)cc1,48.1 µM,

# Test system: SF-295 CNS
# Assay: inhibition of tumour cell growth, NCI panel, 48 h
row,Compound,TGI
1,COc1cc(C(=O)N(Cc2cccnc2)C(=S)N(Cc2cccnc2)C(=O)c2cc(OC)c(OC)c(OC)c2)cc(OC)c1OC,> 100 µM
2,COc1cc(CNCc2cc(OC)c(OC)c(OC)c2)cc(OC)c1OC,> 10 µM
3,CCOC(=O)CNc1c(OCc2ccccc2)c(=O)c1=O,> 100 µM
4,Oc1c(CN2CCOCC2)ccc2cccnc12,> 10 µM
5,Cc1ccc2c(c1)C(C(=O)N[C@@H]1C(=O)N3[C@@H]1SC(C)(C)[C@@H]3C(=O)O)OCCC2 (stereo not given in full),> 100 µM
6,CCOCc1nc2c(OC)cc(-c3nc4ccc(N5CCN(C)CC5)cc4[nH]3)c(OC)c2[nH]1,36.8 µM
7,CON(C)C(=O)CNC(=O)OCC1c2ccccc2-c2ccccc21,> 100 µM
8,CCOC(=O)C(=Cc1[nH]c2ccccc2c1-c1c[nH]c2ccccc12)C(=O)OCC,25.3 µM
9,CSc1ncnc2c1ncn2C1CC(Oc2ccc(C)cc2)C(COc2ccc(C)cc2)O1 (stereo not given),> 100 µM
10,Cc1ccc(N=Nc2c(O)ccc3cc(S(=O)(=O)O)cc(S(=O)(=O)O)c23)cc1,> 100 µM
11,O=C(O)Cc1cccc2c(=O)c3ccccc3oc12,> 100 µM
12,CCOC(=O)N/N=C(/N)c1cccc([N+](=O)[O-])c1,> 100 µM
13,COC1=C(OC)C(=O)C(Cc2c(C)nc3sc(C)cn23)=C(C)C1=O,43.7 µM
14,CC(=O)OC(/C=C/c1ccccc1)=C(OC(C)C)/C1=C(\c2ccccc2)SCCCSC1=O,> 100 µM
15,COc1cccc(-c2ccc3c4c2O[C@H]2C(=O)CC[C@@]5(O)[C@@H](C3)N(CC3CC3)CC[C@]425)c1,32.6 µM
16,O=C1/C(=C/c2ccc([N+](=O)[O-])cc2)C(=O)N(c2ccccc2)C1c1ccccc1 (stereo not given),> 10 µM

row,Compound,TGI
1,NC(N)=NCCC[C@H](N)C(=O)NCC(=O)N[C@@H](CC(=O)O)c1ncc(NC(=O)C(F)(F)F)o1,> 25 µM
2,Cc1cc(S(=O)(=O)N=C2N(Cc3ccccc3)CCN2Cc2ccccc2)c(S)cc1Cl,> 100 µM
3,Oc1ccc(-c2nc(-c3cccnc3)c(-c3ccc(Cl)cc3)[nH]2)cc1,27.3 µM
4,CSc1ccc2c(cc1=O)[C@@H](NC(=O)c1ccc(N)cc1)CCc1cc(O)c(O)c(O)c1-2,39.2 µM and 46.1 µM
5,CN1CCC(O)(C(C)(C)C)CC1,> 100 µM
6,Cn1cc(NC(=O)c2cc(NC(=O)CN=C(N)N)cn2C)cc1C(=O)NCCC(=N)N,> 100 µM
7,CCOC(=O)c1cc(C(O)P2(=O)N(CC(C)(C)C)[C@@H]3CCCC[C@H]3N2CC(C)(C)C)cn1C(=O)OC(C)(C)C (stereo not given in full),32 µM
8,COc1cc(/C=C2/C[C@H]3[C@@H]4CC=C5C[C@@H](O)CC[C@]5(C)[C@H]4CC[C@]3(C)NC2=O)cc(OC)c1OC,> 65.3 µM
9,O=C1C=C(C2=CC(=O)C(=O)c3ccccc32)c2ccccc2C1=O,66.5 µM
10,C(=Nc1ccc(-c2nc3ccccc3[nH]2)cc1)c1cccs1,> 100 µM
11,C[N+](C)(C)CC1CCCCCCCCCCC1=O (stereo not given),> 100 µM
12,Cn1c2c(c3ccccc31)CC1c3c(c4ccccc4n3C)CC21 (stereo not given),> 100 µM
13,Cc1ccc(/C=C2\CCCc3ccccc3C2=O)cc1,16.6 µM
14,COCN(CCC1=CCCCC1)C(=O)OC,> 100 µM
15,NN/C(=N\S(=O)(=O)c1cc2ccccc2s1)Nc1ccc(Cl)cc1,43.2 µM

# Test system: OVCAR-4 ovarian
# Assay: inhibition of tumour cell growth, NCI panel, 48 h
row,Compound,TGI
1,COc1cc(C(=O)N(Cc2cccnc2)C(=S)N(Cc2cccnc2)C(=O)c2cc(OC)c(OC)c(OC)c2)cc(OC)c1OC,43.5 µM
2,COc1cc(CNCc2cc(OC)c(OC)c(OC)c2)cc(OC)c1OC,> 10 µM
3,CCOC(=O)CNc1c(OCc2ccccc2)c(=O)c1=O,> 100 µM
4,Oc1c(CN2CCOCC2)ccc2cccnc12,> 10 µM
5,Cc1ccc2c(c1)C(C(=O)N[C@@H]1C(=O)N3[C@@H]1SC(C)(C)[C@@H]3C(=O)O)OCCC2 (stereo not given in full),> 100 µM
6,CCOCc1nc2c(OC)cc(-c3nc4ccc(N5CCN(C)CC5)cc4[nH]3)c(OC)c2[nH]1,> 100 µM
7,CON(C)C(=O)CNC(=O)OCC1c2ccccc2-c2ccccc21,> 100 µM
8,CCOC(=O)C(=Cc1[nH]c2ccccc2c1-c1c[nH]c2ccccc12)C(=O)OCC,20.3 µM
9,CSc1ncnc2c1ncn2C1CC(Oc2ccc(C)cc2)C(COc2ccc(C)cc2)O1 (stereo not given),> 100 µM
10,Cc1ccc(N=Nc2c(O)ccc3cc(S(=O)(=O)O)cc(S(=O)(=O)O)c23)cc1,> 100 µM
11,O=C(O)Cc1cccc2c(=O)c3ccccc3oc12,> 100 µM
12,CCOC(=O)N/N=C(/N)c1cccc([N+](=O)[O-])c1,> 100 µM
13,COC1=C(OC)C(=O)C(Cc2c(C)nc3sc(C)cn23)=C(C)C1=O,23.1 µM
14,CC(=O)OC(/C=C/c1ccccc1)=C(OC(C)C)/C1=C(\c2ccccc2)SCCCSC1=O,> 100 µM
15,COc1cccc(-c2ccc3c4c2O[C@H]2C(=O)CC[C@@]5(O)[C@@H](C3)N(CC3CC3)CC[C@]425)c1,31.4 µM
16,O=C1/C(=C/c2ccc([N+](=O)[O-])cc2)C(=O)N(c2ccccc2)C1c1ccccc1 (stereo not given),> 10 µM

row,Compound,TGI
1,NC(N)=NCCC[C@H](N)C(=O)NCC(=O)N[C@@H](CC(=O)O)c1ncc(NC(=O)C(F)(F)F)o1,> 25 µM
2,Cc1cc(S(=O)(=O)N=C2N(Cc3ccccc3)CCN2Cc2ccccc2)c(S)cc1Cl,> 100 µM
3,Oc1ccc(-c2nc(-c3cccnc3)c(-c3ccc(Cl)cc3)[nH]2)cc1,23.3 µM
4,CSc1ccc2c(cc1=O)[C@@H](NC(=O)c1ccc(N)cc1)CCc1cc(O)c(O)c(O)c1-2,34.1 µM and 54 µM
5,CN1CCC(O)(C(C)(C)C)CC1,> 100 µM
6,Cn1cc(NC(=O)c2cc(NC(=O)CN=C(N)N)cn2C)cc1C(=O)NCCC(=N)N,> 100 µM
7,CCOC(=O)c1cc(C(O)P2(=O)N(CC(C)(C)C)[C@@H]3CCCC[C@H]3N2CC(C)(C)C)cn1C(=O)OC(C)(C)C (stereo not given in full),77.7 µM
8,COc1cc(/C=C2/C[C@H]3[C@@H]4CC=C5C[C@@H](O)CC[C@]5(C)[C@H]4CC[C@]3(C)NC2=O)cc(OC)c1OC,> 86.5 µM
9,O=C1C=C(C2=CC(=O)C(=O)c3ccccc32)c2ccccc2C1=O,> 100 µM
10,C(=Nc1ccc(-c2nc3ccccc3[nH]2)cc1)c1cccs1,> 100 µM
11,C[N+](C)(C)CC1CCCCCCCCCCC1=O (stereo not given),> 100 µM
12,Cn1c2c(c3ccccc31)CC1c3c(c4ccccc4n3C)CC21 (stereo not given),> 100 µM
13,Cc1ccc(/C=C2\CCCc3ccccc3C2=O)cc1,> 100 µM
14,COCN(CCC1=CCCCC1)C(=O)OC,> 100 µM
15,NN/C(=N\S(=O)(=O)c1cc2ccccc2s1)Nc1ccc(Cl)cc1,38.5 µM

# Test system: SK-OV-3 ovarian
# Assay: inhibition of tumour cell growth, NCI panel, 48 h
row,Compound,TGI [µM]
1,COc1cc(C(=O)N(Cc2cccnc2)C(=S)N(Cc2cccnc2)C(=O)c2cc(OC)c(OC)c(OC)c2)cc(OC)c1OC,> 100
2,COc1cc(CNCc2cc(OC)c(OC)c(OC)c2)cc(OC)c1OC,> 10
3,CCOC(=O)CNc1c(OCc2ccccc2)c(=O)c1=O,> 100
4,Oc1c(CN2CCOCC2)ccc2cccnc12,> 10
5,Cc1ccc2c(c1)C(C(=O)N[C@@H]1C(=O)N3[C@@H]1SC(C)(C)[C@@H]3C(=O)O)OCCC2 (stereo not given in full),> 100
6,CCOCc1nc2c(OC)cc(-c3nc4ccc(N5CCN(C)CC5)cc4[nH]3)c(OC)c2[nH]1,> 100
7,CON(C)C(=O)CNC(=O)OCC1c2ccccc2-c2ccccc21,> 100
8,CCOC(=O)C(=Cc1[nH]c2ccccc2c1-c1c[nH]c2ccccc12)C(=O)OCC,49
9,CSc1ncnc2c1ncn2C1CC(Oc2ccc(C)cc2)C(COc2ccc(C)cc2)O1 (stereo not given),> 100
10,Cc1ccc(N=Nc2c(O)ccc3cc(S(=O)(=O)O)cc(S(=O)(=O)O)c23)cc1,> 100
11,O=C(O)Cc1cccc2c(=O)c3ccccc3oc12,41.9
12,CCOC(=O)N/N=C(/N)c1cccc([N+](=O)[O-])c1,> 100
13,COC1=C(OC)C(=O)C(Cc2c(C)nc3sc(C)cn23)=C(C)C1=O,38.9
14,CC(=O)OC(/C=C/c1ccccc1)=C(OC(C)C)/C1=C(\c2ccccc2)SCCCSC1=O,> 100
15,COc1cccc(-c2ccc3c4c2O[C@H]2C(=O)CC[C@@]5(O)[C@@H](C3)N(CC3CC3)CC[C@]425)c1,34.5
16,O=C1/C(=C/c2ccc([N+](=O)[O-])cc2)C(=O)N(c2ccccc2)C1c1ccccc1 (stereo not given),> 10
17,NC(N)=NCCC[C@H](N)C(=O)NCC(=O)N[C@@H](CC(=O)O)c1ncc(NC(=O)C(F)(F)F)o1,> 25
18,Cc1cc(S(=O)(=O)N=C2N(Cc3ccccc3)CCN2Cc2ccccc2)c(S)cc1Cl,> 100
19,Oc1ccc(-c2nc(-c3cccnc3)c(-c3ccc(Cl)cc3)[nH]2)cc1,26.8
20,CSc1ccc2c(cc1=O)[C@@H](NC(=O)c1ccc(N)cc1)CCc1cc(O)c(O)c(O)c1-2,> 100
21,CN1CCC(O)(C(C)(C)C)CC1,> 100
22,Cn1cc(NC(=O)c2cc(NC(=O)CN=C(N)N)cn2C)cc1C(=O)NCCC(=N)N,> 100
23,CCOC(=O)c1cc(C(O)P2(=O)N(CC(C)(C)C)[C@@H]3CCCC[C@H]3N2CC(C)(C)C)cn1C(=O)OC(C)(C)C (stereo not given in full),59.2
24,COc1cc(/C=C2/C[C@H]3[C@@H]4CC=C5C[C@@H](O)CC[C@]5(C)[C@H]4CC[C@]3(C)NC2=O)cc(OC)c1OC,> 92.3
25,O=C1C=C(C2=CC(=O)C(=O)c3ccccc32)c2ccccc2C1=O,> 100
26,C(=Nc1ccc(-c2nc3ccccc3[nH]2)cc1)c1cccs1,> 100
27,C[N+](C)(C)CC1CCCCCCCCCCC1=O (stereo not given),> 100
28,Cn1c2c(c3ccccc31)CC1c3c(c4ccccc4n3C)CC21 (stereo not given),> 100
29,Cc1ccc(/C=C2\CCCc3ccccc3C2=O)cc1,58
30,COCN(CCC1=CCCCC1)C(=O)OC,> 100
